Laboratory results as given in publication PMC5923123, “In Vitro and In Vivo Efficacy of a Novel and Long-Acting Fungicidal Azole, PC1244, on Aspergillus fumigatus Infection” (Antimicrobial Agents and Chemotherapy, 2018).
Converted amounts (≈) assume the structure as drawn. “And” between values parts separate entries of the source, which are not always exact repeats. Identical values can stand only once. Like-named read-outs stand apart in the source and are kept apart here.

How the values were obtained:
[1] = test system: BEAS2B cells infected with A. fumigatus; assay: Persistence of action in bronchial epithelial cells (galactomannan in supernatant); assay type: cell-based, Aspergillus fumigatus; settings: Aspergillus fumigatus, BEAS-2B, GM readout
Protocol: In a second system, the persistence of the action of the same three agents on A. fumigatus-infected bronchial epithelial cells was quantified using galactomannan (GM) production in the culture supernatant as an index of fungal growth. BEAS2B cells were infected with A. fumigatus, and the effects of a 24-h washout period (medium change) prior to infection were examined.
The persistence of action of the test agents was evaluated in immortalized bronchial epithelial cells (BEAS2B cells) as previously reported ([28]). […] The plate was incubated for exactly 1 h at 37°C in 5% CO2. After the incubation time had elapsed, all wells on the washout plate were aspirated and growth medium (100 μl/well) was added across the plate. […] The plate was incubated for exactly 1 h at 37°C in 5% CO2, after which A. fumigatus conidia were added across both plates at a final concentration of 1 × 10^3/well. […] This study was conducted in triplicate in three independent experiments.

[2] = test system: A. fumigatus (NCPF2010); assay: Fungicidal activity by XTT colorimetric method (XTT-MFC)
Protocol: In addition, the fungicidal effect of each compound was determined using 2,3-bis-(2-methoxy-4-nitro-5-sulfophenyl)-2H-tetrazolium-5-carboxanilide salt (XTT)-based quantitative colorimetric analysis (XTT-MFC).
After the removal of medium for culture-based testing of the number of CFU, the contents of all wells were carefully aspirated and warm PBS (200 μl/well) was added. After gentle agitation, the contents of all wells were aspirated and fresh medium was added (200 μl/well). The plates were incubated (35°C with ambient air) for 24 h. […] The plates were incubated (35°C with ambient air) for 2 h, after which the plates were agitated gently for 2 min. The optical density (OD) of each well at 450 nm and 620 nm was measured using a multiscanner (Clariostar; BMG, Buckinghamshire, UK).

[3] = test system: Lichtheimia corymbifera (ATCC 7909); assay: CLSI MIC; assay type: cell-based; settings: ATCC7909, 1 strain
[4] = test system: A. fumigatus (NCPF2010); assay: Broth microdilution MIC (96-well) preceding MFC determination; settings: Aspergillus fumigatus
Protocol: (§2) After the MIC for each compound was recorded, fungicidal activity was determined as previously described ([35]). Briefly, medium from each well (100 μl/well) was removed after pipetting up and down five times and subcultured onto 4% Sabouraud dextrose agar plates. The plates were incubated (35°C with ambient air) for 48 h, and the numbers of CFU were counted for each compound concentration. The minimum fungicidal concentration (MFC) was determined as the lowest compound concentration yielding 3 colonies or less.

[5] = test system: Penicillium chrysogenum (ATCC 9480); assay: CLSI MIC; assay type: cell-based; settings: ATCC9480, 1 strain
[6] = test system: Trichophyton rubrum (ATCC 10218); assay: CLSI MIC; assay type: cell-based; settings: ATCC10218, 1 strain
[7] = test system: A. fumigatus (NCPF2010); assay: Fungicidal activity by subculture on agar (CFU-MFC)
Protocol: as §2

[8] = test system: Rhizopus oryzae(ATCC 11145); assay: CLSI MIC; assay type: cell-based; settings: Rhizopus arrhizus, ATCC11145, 1 strain
[9] = test system: 96 clinically isolated A. fumigatus strains; assay: EUCAST MIC against clinical isolates (visual); assay type: cell-based, Aspergillus fumigatus; settings: 96 clinical isolates
Description: The antifungal activity of PC1244 was further evaluated against 96 clinical isolates (obtained from Saint Louis Hospital, Paris, France [50 isolates], and the North West England Mycology Reference Centre, Manchester, UK [46 isolates]). […] .

[10] = test system: Cryptococcus neoformans (ATCC 24067); assay: CLSI MIC; assay type: cell-based; settings: ATCC24067, CLSI, 1 strain, read-out: MIC
[11] = test system: A. fumigatus NCPF2010; assay: EUCAST broth microdilution growth inhibition (OD 530 nm, 384-well); assay type: cell-based; settings: Aspergillus fumigatus, strain NCPF2010 (ITC-susceptible), 48 h, range tested 0.002 to 1 μg/ml
Protocol: (§1) The antifungal activities of the test compounds against A. fumigatus strains (itraconazole [ITC]-susceptible strains NCPF2010, AF294, and AF293; ITC-resistant strains AF72 and AF91) were calculated from growth curves generated by spectrophotometric analysis and compared to the activities against positive and negative controls.

[12] = test system: A. fumigatus AF72; assay: as above; assay type: cell-based; settings: Aspergillus fumigatus, strain AF72 (ITC-resistant), 48 h
Protocol: as §1

[13] = test system: A. fumigatus AF293; assay: as above; assay type: cell-based; settings: Aspergillus fumigatus, strain AF293 (ITC-susceptible), 48 h
Protocol: as §1

[14] = test system: A. fumigatus AF294; assay: as above; assay type: cell-based; settings: Aspergillus fumigatus, strain AF294 (ITC-susceptible), 48 h
Protocol: as §1

[15] = test system: A. fumigatus AF91; assay: as above; assay type: cell-based; settings: Aspergillus fumigatus, strain AF91 (ITC-resistant), 48 h
Protocol: as §1

[16] = test system: A. fumigatus hyphae (NCPF2010); assay: Persistence of action on A. fumigatus hyphae (resazurin microtiter assay); assay type: cell-based, Aspergillus fumigatus; settings: for IC50: Aspergillus fumigatus, NCPF2010
Protocol: The duration of action of test agents within the hyphae of A. fumigatus has been determined using a resazurin-based microtiter assay ([28]).
The persistence of action of the test agents against A. fumigatus hyphae (NCPF2010) was determined as previously reported ([28]). […] The plates were incubated for exactly 20 min at 35°C in 5% CO2. After the incubation time had elapsed, all wells on the designated washout plate were aspirated and growth medium (100 μl/well) was added across the plate. […] Resazurin (0.04% diluted in growth medium) was added to all wells of both the nonwashout and washout plates (5 μl/well) to give a final concentration of 0.002% resazurin. The plates were incubated at 35°C in 5% CO2 for 16 h. Subsequently, the fluorescence in each well was measured at an excitation λ of 545 nm and an emission λ of 600 nm using a multiscanner (Clariostar; BMG, Buckinghamshire, UK). […] This study was conducted in quadruplicate in three independent experiments.

[17] = test system: Aureobasidium pullulans (ATCC 348); assay: CLSI MIC; assay type: cell-based; settings: ATCC348, 1 strain
[18] = test system: Chaetomium globosum (ATCC 44699); assay: CLSI MIC; assay type: cell-based; settings: ATCC44699, 1 strain
[19] = test system: ergosterol production in A. fumigatus (NCPF2010); assay: A. fumigatus cell-based ergosterol assay; settings: for IC50: Aspergillus fumigatus
Protocol: CYP51 enzyme-inhibitory activity was also measured in a cell-based assay, as described previously ([28]). In this plate-based ergosterol quantification experiment, oxidation of ergosterol by cholesterol oxidase was determined by observing the conversion of the weakly fluorescent resazurin to the highly fluorescent resorufin and was normalized using crystal violet staining (indicating cell number).
After incubation for 24 h at 35°C, the medium was removed from all wells and replaced with reaction buffer (catalog number A12216; Amplex red cholesterol assay kit; Thermo Fisher) and Amplex red solution. The plates were incubated for 30 min at 37°C with protection from light, after which the fluorescence was quantified using a spectrophotometer. The medium was removed from all wells and replaced with crystal violet solution (1%, vol/vol), and the plates were incubated at room temperature on a shaker for 30 min. The plates were washed three times with phosphate-buffered saline (PBS), and sodium dodecyl sulfate solution (0.1%, vol/vol) was added across the plate to lyse the cells. After incubation at room temperature for 1 h, the absorbance (OD) at 590 nm was measured using a spectrophotometer.

[20] = test system: Aspergillus flavus (ATCC 204304); assay: CLSI MIC; assay type: cell-based; settings: ATCC204304, CLSI, 1 strain, read-out: MIC
[21] = test system: Mucor circinelloides (ATCC 8542); assay: CLSI MIC; assay type: cell-based; settings: ATCC8542, 1 strain
[22] = test system: Cladosporium argillaceum (ATCC 38013); assay: CLSI MIC; assay type: cell-based; settings: Rhizocladosporium argillaceum, ATCC38013, 1 strain

Structure (SMILES): Cc1cc(N2CCN(c3ccc(C(=O)N[C@H]4CCCC[C@@H]4O)cc3)CC2)ccc1OC[C@@H]1CO[C@@](Cn2cncn2)(c2ccc(F)cc2F)C1 [PC1244, 4-(4-(4-(((3R,5R)-5-((1H-1,2,4-triazol-1-yl)methyl)-5-(2,4-difluorophenyl)tetrahydrofuran-3-yl)methoxy)-3-methylphenyl)piperazin-1-yl)-N-((1S,2S)-2-hydroxycyclohexyl)benzamide]
- IC50 ([1]; 1 h contact before infection, no washout, read-out: BEAS2B cells IC50 No washout): 0.0034 mg/L (≈ 0.00495 µM)
- IC50 ([1]; 1 h contact then 24-h washout before infection, read-out: BEAS2B cells IC50 Washout): 0.018 mg/L (≈ 0.0262 µM)
- fold more potent than POS (XTT-MFC) [2]: 3 fold
- fold more potent than VRC (XTT-MFC) [2]: > 229 fold
- MFC ([2]; Aspergillus fumigatus, NCPF2010, read-out: XTT-MFC): 0.14 mg/L (≈ 0.204 µM)
- inhibition at 1 µg/mL ([2]; Aspergillus fumigatus, NCPF2010, read-out: maximum inhibition of fungicidal activity): 99.9%
- XTT-MFC/MIC ratio ([2]; NCPF2010): 2.2
- XTT-MFC ([2]; NCPF2010, cutoff 99% inhibition): 0.14 ± 0.0058 mg/L
- MIC [3]: 1 mg/L (≈ 1.46 µM)
- MIC [4]: 0.063 mg/L (≈ 0.0917 µM)
- MIC [5]: 0.13 mg/L (≈ 0.189 µM)
- MIC [6]: 0.031 mg/L (≈ 0.0451 µM)
- fold stronger than POS (CFU-MFC) [7]: 2 fold
- fold stronger than VRC (CFU-MFC) [7]: 8 fold
- MFC ([7]; Aspergillus fumigatus, NCPF2010, 48 h, read-out: CFU-MFC): 2 mg/L (≈ 2.91 µM)
- CFU-MFC/MIC ratio ([7]; NCPF2010): 32
- MIC [8]: 0.25 mg/L (≈ 0.364 µM)
- fold more potent than VRC on the basis of geometric mean MICs [9]: 6.2 fold
- MIC Range ([9]; visual): 0.008 to 2 mg/L
- MIC50 ([9]; Aspergillus fumigatus, visual): 0.032 mg/L (≈ 0.0466 µM)
- MIC90 ([9]; Aspergillus fumigatus, visual): 0.5 mg/L (≈ 0.728 µM)
- MIC ([9]; Aspergillus fumigatus, visual, read-out: MIC Geometric mean): 0.067 mg/L (≈ 0.0976 µM)
- MIC ([9]; Aspergillus fumigatus, visual, read-out: MIC Mode): 0.016 mg/L (≈ 0.0233 µM)
- MIC [10]: 0.016 mg/L (≈ 0.0233 µM)
- IC50 [11]: 0.0017 mg/L (≈ 0.00248 µM)
- IC90 [11]: 0.0022 mg/L (≈ 0.0032 µM)
- IC50 [12]: 0.0024 mg/L (≈ 0.00349 µM)
- IC90 [12]: 0.026 mg/L (≈ 0.0379 µM)
- IC50 [13]: 0.0026 mg/L (≈ 0.00379 µM)
- IC90 [13]: 0.012 mg/L (≈ 0.0175 µM)
- IC50 [14]: 0.0021 mg/L (≈ 0.00306 µM)
- IC90 [14]: 0.0041 mg/L (≈ 0.00597 µM)
- IC50 [15]: 0.0037 mg/L (≈ 0.00539 µM)
- IC90 [15]: 0.024 mg/L (≈ 0.0349 µM)
- Hyphae Fold change (washout vs no washout) [16]: 2.4 fold and 2.41 fold
- IC50 ([16]; 20 min contact, washout, 16 h incubation, read-out: Hyphae IC50 Washout): 0.00025 mg/L (≈ 0.000364 µM)
- IC50 ([16]; continuous contact 16 h, read-out: Hyphae IC50 No washout): 0.00011 mg/L (≈ 0.00016 µM)
- fold more potent than POS at inhibiting hyphal growth ([16]; no washout IC50): 4.1 fold
- fold more potent than VRC at inhibiting hyphal growth ([16]; no washout IC50): 100 fold
- MIC [17]: 1 mg/L (≈ 1.46 µM)
- MIC [18]: 0.063 mg/L (≈ 0.0917 µM)
- fold more potent than POS at inhibiting ergosterol production [19]: 2.2 fold
- fold more potent than VRC at inhibiting ergosterol production [19]: 12 fold
- IC50 ([19]; NCPF2010, 24 h, read-out: IC50, inhibition of ergosterol production): 0.0055 mg/L
- IC50 ([19]; NCPF2010, read-out: 50% inhibitory concentration, ergosterol synthesis): 8 nM
- MIC [20]: 0.25 mg/L (≈ 0.364 µM)
- MIC [21]: 2 mg/L (≈ 2.91 µM)
- MIC [22]: 0.25 mg/L (≈ 0.364 µM)
